In patent US10821079B2, “PKC activators and combinations thereof” (Cognitive Research Enterprises, Inc., priority 2011, dated 2020):

How the values were obtained:
synaptosomes = assay: Western blot of synaptosomes from treated cells; assay type: cell-based, human; details: RA 10 μM, Bryostatin-1 0.27 nM, 72 hr
Experimental: Synaptosomes from undifferentiated and differentiated cells were prepared following the method described earlier (29). See Nagy et al. (1984) J Neurochem 43, 1114-1123. Briefly, the cells were washes in 1×PBS and homogenized in 10 volumes of buffer (“buffer1”) containing 0.32 M sucrose, 5 mM HEPES pH 7.2, and 0.1 mM EDTA in a Teflon homogenizer. The homogenate was centrifuged at 1000×g for 10 min to remove the nuclear fraction. The supernatant obtained was again spun at 12000×g for 20 min at 4° C. The pellet thus obtained was resuspended in 3 volumes of buffer1 and was layered on to the 16%/10%/8.5% Percoll gradient prepared from the stock isoosmotic percoll containing 9 parts 100% percoll, and 1 part 2.5 M sucrose. The preparation was centrifuged at 15000×g for 20 min at 4° C. Synaptosomes collected from the layer between 10% and 16% gradient was washed with 1×PBS and was centrifuged at 20000×g for 15 min. The purified synaptosomes were homogenized in homogenizing buffer and were subjected to western blot as described before.
Western blot analysis was performed after 72 hr.

PKC-α = PKC-α translocation to membrane in SH-SY5Y cells (Western blot); assay type: cell-based, human; details: 0.27 nM, 0-60 min
Experimental: Cells were harvested in homogenizing buffer containing 10 mM Tris-Cl (pH 7.4), 1 mM PMSF (phenylmethylsulfonyl fluoride), 1 mM EGTA, 1 mM EDTA, 50 mM NaF, and 20 μM leupeptin and were lysed by sonication. The homogenate was centrifuged at 100,000×g for 15 min at 4° C. to obtain the cytosolic fraction (supernatant) and membrane (pellet). The pellet was resuspended in the homogenizing buffer by sonication. Protein concentration was measured using the Coomassie Plus (Bradford) Protein Assay kit (Pierce, USA). Following quantification, 20 μg of protein from each sample was subjected to SDS-PAGE analysis in 4-20% gradient Tris-Glycine gel (Invitrogen, USA). The separated protein was then transferred to nitrocellulose membrane. The membrane was blocked with BSA at room temperature for 15 min and was incubated with primary antibody over night at 4° C. […] Western Blot was imaged in the ImageQuant RT-ECL (GE Life Sciences, Piscataway, N.J.) and densitometric quantification was performed using the IMAL software (Blanchette Rockefeller Neurosciences Institute, Morgantown, W. Va.). […]
Equal amounts of proteins were loaded in each lane (20 μg) for both the cytosol and membrane fractions. Activation of PKC was calculated as the percentage of total PKC in the membrane (membrane/cytosol+membrane).

PKC-ε = PKC-ε mRNA by RT-PCR in primary rat hippocampal neurons; assay type: cell-based; details: controls and ASPD-treated cells
Experimental: RNA was isolated from the cells using Trizol reagent (Invitrogen, USA) following the manufacturer's protocol. Briefly, 5 μg of total RNA was reverse transcribed using oligo (dT) and Superscript III (Invitrogen, USA) at 50° C. for 1 hr. Two μl of the cDNA product was amplified using primers for PKC-ε (Forward Primer—[…], Reverse primer—[…]), and β-tubulin (Forward Primer—[…], Reverse primer—[…]) (Origene, Rockville, Md.) for 25 cycles following standard PCR protocols and 55° C. annealing temperature. The PCR amplicons were analyzed in an E-Gel (Invitrogen, USA). The gel image was documented using a Fuji Image gel scanner (FLA-9000, Fuji Film) and densitometric quantification was performed using the IMAL software (Blanchette Rockefeller Neurosciences Institute, Morgantown, W. Va.). Data were represented as normalized ratio of PKC-ε OD (Optical Density) against β-tubulin OD for three independent experiments.
Primary neurons were treated with ASPD and/or DCPLA-ME. PKC-ε mRNA was quantified by RT-PCR as described above. RNA prepared from control and treated cultured primary rat hippocampal neurons were isolated and reverse transcribed. Individual cDNA was amplified for PKC-ε and β-actin. PKC-ε expression was normalized to β-actin.

[1] = Water maze spatial learning and memory task, visible platform test; assay type: in vivo, Wistar rats
Experimental: Water maze spatial learning and memory task (2 training trials/day for 4 days) was used to evaluate effects of oral DCPLA-ME on learning and memory in rats. A visible platform test was conducted after the end of the experiments to evaluate whether the treatment might result in an altered sensorimotor activity and escape motivation.
Male adult Wistar rats (200-250 g) were housed in a temperature-controlled (20-24° C.) room for a week, allowed free access to food and water, and kept on a 12-h light/dark cycle. Rats were anesthetized with sodium pentobarbital (60 mg/kg i.p) and placed in a stereotactic apparatus (Kopf Instruments, Tujunga, Calif.). The core temperature of rats was monitored and kept constant (38.0±0.5° C.) with warming light and pad. Two stainless steel guide cannulas were placed with the tips positioned at the coordinates (anterior-posterior, 0.5 mm; lateral, 1.5 mm; horizontal, 3.2 mm), under aseptic conditions. At the end of surgery and under appropriate anesthesia, rats received (s.c.) banamine (1 mg/kg) and ketoprofen (5 mg/kg) in lactate/Ringer's solution. A 7-day recovery period was allowed before any further experimentation.
On the first day of experiments, all rats were randomly assigned to different groups and swam for 2 min in a 1.5-(diameter)×0.6-m (depth) pool (22±1° C.). On the following day, rats were trained in a two-trial per day task for four consecutive days. Each training trial lasted for up to 2 min, during which rats learned to escape from water by finding a hidden platform that was placed at a fixed location and submerged 1 cm below the water surface. The navigation of the rats was tracked by a video camera. The escape latency and the route of rats' swimming across the pool to the platform were recorded. The quadrant test (1 min) was performed after removing the platform, 24 hr after the last training trial.
DCPLA-ME was administered at either 5.3 or 16.0 mg/kg (intragastric, 8 doses total of 2/week with the first 6 doses before the water maze task and the seventh and eighth doses 0.5 hr after the second trial of the first and third training day).

## CCC/C=C/C=C/C(=O)O[C@H]1/C(=C/C(=O)OC)C[C@H]2C[C@H]([C@@H](C)O)OC(=O)C[C@H](O)C[C@@H]3C[C@H](OC(C)=O)C(C)(C)C(O)(C[C@@H]4C/C(=C/C(=O)OC)C[C@H](/C=C/C(C)(C)[C@]1(O)O2)O4)O3 [Bryostatin-1]
synaptosomes
  increase in PKC-ε level in synaptosomes: 2 fold
PKC-α
  PKC-α translocation over time (in words): came down to baseline at 60 min

## CCCCCC1CC1CC1CC1CCCCCCCC(=O)OC (stereo not shown) [DCPLA-ME, methyl 8-(2-((2-pentylcyclopropyl)methyl)cyclopropyl)octanoate]
PKC-ε
  PKC-ε transcript levels (in words): increased PKC-ε transcript levels
[1]; 5.3 mg/kg intragastric
  memory retention, target quadrant ratio vs control: but not between the 5.3 mg/kg dose and control groups
  water maze learning, escape latency vs control: did not reach a significant level
[1]; 16.0 mg/kg intragastric
  water maze learning, escape latency vs control: improved learning performance
[1]; oral
  visible platform test, sensorimotor ability and escape motivation: did not affect rats' sensorimotor ability and motivation for an escape
